Measurements published in the supplement of paper PMC8882468.

The compounds below were run on HCI-019 (organoid from a triple-negative breast cancer xenograft) (assay: CTG-3D luminescence at 96 h relative to day-0 seeding control (ratio to day 0); higher = more growth / less cytotoxicity; PDxO 3D drug screen, 96 h, CTG-3D normalised to day-0 seeding control.). Settings: 1 µM; days in culture: 152.

Row | Compound | CTG-3D luminescence at 96 h
1 | NC1(C(=O)N[C@@H](CCO)c2ccc(Cl)cc2)CCN(c2nc[nH]c3nccc2-3)CC1 [capivasertib] | 0.946
2 | CC(C)n1nc(-c2ccc3oc(N)nc3c2)c2c(N)ncnc21 [sapanisertib] | 0.811
3 | O=C(c1ccc(F)c(F)c1Nc1ccc(I)cc1F)N1CC(O)([C@@H]2CCCCN2)C1 [cobimetinib] | 1.11
4 | C[C@H](NC(=O)CCC(F)(F)F)C(=O)N[C@@H]1C(=O)N(CCO)c2ncccc2-c2ccccc21 [crenigacestat] | 1.96
5 | Cc1cc(Nc2ncc(Cl)c(Nc3ccccc3S(=O)(=O)C(C)C)n2)c(OC(C)C)cc1C1CCNCC1 [ceritinib] | 1.37
6 | CS(=O)(=O)c1ccc(C(=O)Nc2ccc(Cl)c(-c3ccccn3)c2)c(Cl)c1 [vismodegib] | 2.08
7 | NC(=O)c1cccc2cn(-c3ccc([C@@H]4CCCNC4)cc3)nc12 [niraparib] | 0.878
8 | Cc1cc(Nc2ncnc3ccc(NC4=NC(C)(C)CO4)cc23)ccc1Oc1ccn2ncnc2c1 [tucatinib] | 1.99
9 | CCN(c1cc(C#CCN2CCOCC2)cc(C(=O)NCc2c(C)cc(C)[nH]c2=O)c1C)[C@H]1CC[C@H](N(C)CCOC)CC1 | 2.77

Same assay, conditions: 10 µM; days in culture: 110

Row | Compound | CTG-3D luminescence at 96 h
10 | NC1(C(=O)N[C@@H](CCO)c2ccc(Cl)cc2)CCN(c2nc[nH]c3nccc2-3)CC1 [capivasertib] | 1.18
11 | CC(C)n1nc(-c2ccc3oc(N)nc3c2)c2c(N)ncnc21 [sapanisertib] | 0.493
12 | O=C(c1ccc(F)c(F)c1Nc1ccc(I)cc1F)N1CC(O)([C@@H]2CCCCN2)C1 [cobimetinib] | 0.565
13 | C[C@H](NC(=O)CCC(F)(F)F)C(=O)N[C@@H]1C(=O)N(CCO)c2ncccc2-c2ccccc21 [crenigacestat] | 2.5
14 | Cc1cc(Nc2ncc(Cl)c(Nc3ccccc3S(=O)(=O)C(C)C)n2)c(OC(C)C)cc1C1CCNCC1 [ceritinib] | 0.533
15 | CS(=O)(=O)c1ccc(C(=O)Nc2ccc(Cl)c(-c3ccccn3)c2)c(Cl)c1 [vismodegib] | 2.18
16 | NC(=O)c1cccc2cn(-c3ccc([C@@H]4CCCNC4)cc3)nc12 [niraparib] | 1.1
17 | Cc1cc(Nc2ncnc3ccc(NC4=NC(C)(C)CO4)cc23)ccc1Oc1ccn2ncnc2c1 [tucatinib] | 2.33
18 | CCN(c1cc(C#CCN2CCOCC2)cc(C(=O)NCc2c(C)cc(C)[nH]c2=O)c1C)[C@H]1CC[C@H](N(C)CCOC)CC1 | 2.75

Same assay, conditions: 10 µM; days in culture: 131

Row | Compound | CTG-3D luminescence at 96 h
19 | NC1(C(=O)N[C@@H](CCO)c2ccc(Cl)cc2)CCN(c2nc[nH]c3nccc2-3)CC1 [capivasertib] | 1.63
20 | CC(C)n1nc(-c2ccc3oc(N)nc3c2)c2c(N)ncnc21 [sapanisertib] | 0.681
21 | O=C(c1ccc(F)c(F)c1Nc1ccc(I)cc1F)N1CC(O)([C@@H]2CCCCN2)C1 [cobimetinib] | 1.41
22 | C[C@H](NC(=O)CCC(F)(F)F)C(=O)N[C@@H]1C(=O)N(CCO)c2ncccc2-c2ccccc21 [crenigacestat] | 2.81
23 | Cc1cc(Nc2ncc(Cl)c(Nc3ccccc3S(=O)(=O)C(C)C)n2)c(OC(C)C)cc1C1CCNCC1 [ceritinib] | 0.0735
24 | CS(=O)(=O)c1ccc(C(=O)Nc2ccc(Cl)c(-c3ccccn3)c2)c(Cl)c1 [vismodegib] | 2.53
25 | NC(=O)c1cccc2cn(-c3ccc([C@@H]4CCCNC4)cc3)nc12 [niraparib] | 1.3
26 | Cc1cc(Nc2ncnc3ccc(NC4=NC(C)(C)CO4)cc23)ccc1Oc1ccn2ncnc2c1 [tucatinib] | 3.09
27 | CCN(c1cc(C#CCN2CCOCC2)cc(C(=O)NCc2c(C)cc(C)[nH]c2=O)c1C)[C@H]1CC[C@H](N(C)CCOC)CC1 | 2.33

Same assay, conditions: 10 µM; days in culture: 152

Row | Compound | CTG-3D luminescence at 96 h
28 | NC1(C(=O)N[C@@H](CCO)c2ccc(Cl)cc2)CCN(c2nc[nH]c3nccc2-3)CC1 [capivasertib] | 0.895
29 | CC(C)n1nc(-c2ccc3oc(N)nc3c2)c2c(N)ncnc21 [sapanisertib] | 0.616
30 | O=C(c1ccc(F)c(F)c1Nc1ccc(I)cc1F)N1CC(O)([C@@H]2CCCCN2)C1 [cobimetinib] | 0.848
31 | C[C@H](NC(=O)CCC(F)(F)F)C(=O)N[C@@H]1C(=O)N(CCO)c2ncccc2-c2ccccc21 [crenigacestat] | 2.12
32 | Cc1cc(Nc2ncc(Cl)c(Nc3ccccc3S(=O)(=O)C(C)C)n2)c(OC(C)C)cc1C1CCNCC1 [ceritinib] | 0.01
33 | CS(=O)(=O)c1ccc(C(=O)Nc2ccc(Cl)c(-c3ccccn3)c2)c(Cl)c1 [vismodegib] | 1.82
34 | NC(=O)c1cccc2cn(-c3ccc([C@@H]4CCCNC4)cc3)nc12 [niraparib] | 1.16
35 | Cc1cc(Nc2ncnc3ccc(NC4=NC(C)(C)CO4)cc23)ccc1Oc1ccn2ncnc2c1 [tucatinib] | 2.26
36 | CCN(c1cc(C#CCN2CCOCC2)cc(C(=O)NCc2c(C)cc(C)[nH]c2=O)c1C)[C@H]1CC[C@H](N(C)CCOC)CC1 | 1.9

Same assay, conditions: 100 µM; days in culture: 110

Row | Compound | CTG-3D luminescence at 96 h
37 | NC1(C(=O)N[C@@H](CCO)c2ccc(Cl)cc2)CCN(c2nc[nH]c3nccc2-3)CC1 [capivasertib] | 0.332
38 | CC(C)n1nc(-c2ccc3oc(N)nc3c2)c2c(N)ncnc21 [sapanisertib] | 0.0143
39 | O=C(c1ccc(F)c(F)c1Nc1ccc(I)cc1F)N1CC(O)([C@@H]2CCCCN2)C1 [cobimetinib] | -0.00268
40 | C[C@H](NC(=O)CCC(F)(F)F)C(=O)N[C@@H]1C(=O)N(CCO)c2ncccc2-c2ccccc21 [crenigacestat] | 2.44
41 | Cc1cc(Nc2ncc(Cl)c(Nc3ccccc3S(=O)(=O)C(C)C)n2)c(OC(C)C)cc1C1CCNCC1 [ceritinib] | -0.00638
42 | CS(=O)(=O)c1ccc(C(=O)Nc2ccc(Cl)c(-c3ccccn3)c2)c(Cl)c1 [vismodegib] | 1.03
43 | NC(=O)c1cccc2cn(-c3ccc([C@@H]4CCCNC4)cc3)nc12 [niraparib] | 0.00205
44 | Cc1cc(Nc2ncnc3ccc(NC4=NC(C)(C)CO4)cc23)ccc1Oc1ccn2ncnc2c1 [tucatinib] | 0.029
45 | CCN(c1cc(C#CCN2CCOCC2)cc(C(=O)NCc2c(C)cc(C)[nH]c2=O)c1C)[C@H]1CC[C@H](N(C)CCOC)CC1 | 2.01

Same assay, conditions: 100 µM; days in culture: 131

Row | Compound | CTG-3D luminescence at 96 h
46 | NC1(C(=O)N[C@@H](CCO)c2ccc(Cl)cc2)CCN(c2nc[nH]c3nccc2-3)CC1 [capivasertib] | 0.521
47 | CC(C)n1nc(-c2ccc3oc(N)nc3c2)c2c(N)ncnc21 [sapanisertib] | 0.0207
48 | O=C(c1ccc(F)c(F)c1Nc1ccc(I)cc1F)N1CC(O)([C@@H]2CCCCN2)C1 [cobimetinib] | -0.00394
49 | C[C@H](NC(=O)CCC(F)(F)F)C(=O)N[C@@H]1C(=O)N(CCO)c2ncccc2-c2ccccc21 [crenigacestat] | 3.41
50 | Cc1cc(Nc2ncc(Cl)c(Nc3ccccc3S(=O)(=O)C(C)C)n2)c(OC(C)C)cc1C1CCNCC1 [ceritinib] | -0.00829
51 | CS(=O)(=O)c1ccc(C(=O)Nc2ccc(Cl)c(-c3ccccn3)c2)c(Cl)c1 [vismodegib] | 1.56
52 | NC(=O)c1cccc2cn(-c3ccc([C@@H]4CCCNC4)cc3)nc12 [niraparib] | 0.00628
53 | Cc1cc(Nc2ncnc3ccc(NC4=NC(C)(C)CO4)cc23)ccc1Oc1ccn2ncnc2c1 [tucatinib] | 0.0325
54 | CCN(c1cc(C#CCN2CCOCC2)cc(C(=O)NCc2c(C)cc(C)[nH]c2=O)c1C)[C@H]1CC[C@H](N(C)CCOC)CC1 | 0.501

Same assay, conditions: 100 µM; days in culture: 152

Row | Compound | CTG-3D luminescence at 96 h
55 | NC1(C(=O)N[C@@H](CCO)c2ccc(Cl)cc2)CCN(c2nc[nH]c3nccc2-3)CC1 [capivasertib] | 0.274
56 | CC(C)n1nc(-c2ccc3oc(N)nc3c2)c2c(N)ncnc21 [sapanisertib] | 0.0357
57 | O=C(c1ccc(F)c(F)c1Nc1ccc(I)cc1F)N1CC(O)([C@@H]2CCCCN2)C1 [cobimetinib] | -1.56e-05
58 | C[C@H](NC(=O)CCC(F)(F)F)C(=O)N[C@@H]1C(=O)N(CCO)c2ncccc2-c2ccccc21 [crenigacestat] | 2
59 | Cc1cc(Nc2ncc(Cl)c(Nc3ccccc3S(=O)(=O)C(C)C)n2)c(OC(C)C)cc1C1CCNCC1 [ceritinib] | -0.00373
60 | CS(=O)(=O)c1ccc(C(=O)Nc2ccc(Cl)c(-c3ccccn3)c2)c(Cl)c1 [vismodegib] | 0.857
61 | NC(=O)c1cccc2cn(-c3ccc([C@@H]4CCCNC4)cc3)nc12 [niraparib] | 0.00267
62 | Cc1cc(Nc2ncnc3ccc(NC4=NC(C)(C)CO4)cc23)ccc1Oc1ccn2ncnc2c1 [tucatinib] | 0.0487
63 | CCN(c1cc(C#CCN2CCOCC2)cc(C(=O)NCc2c(C)cc(C)[nH]c2=O)c1C)[C@H]1CC[C@H](N(C)CCOC)CC1 | 0.188

Same assay, conditions: 625 fM; days in culture: 110

Row | Compound | CTG-3D luminescence at 96 h
64 | NC1(C(=O)N[C@@H](CCO)c2ccc(Cl)cc2)CCN(c2nc[nH]c3nccc2-3)CC1 [capivasertib] | 1.92
65 | CC(C)n1nc(-c2ccc3oc(N)nc3c2)c2c(N)ncnc21 [sapanisertib] | 2.26
66 | O=C(c1ccc(F)c(F)c1Nc1ccc(I)cc1F)N1CC(O)([C@@H]2CCCCN2)C1 [cobimetinib] | 2.27
67 | C[C@H](NC(=O)CCC(F)(F)F)C(=O)N[C@@H]1C(=O)N(CCO)c2ncccc2-c2ccccc21 [crenigacestat] | 2.28
68 | Cc1cc(Nc2ncc(Cl)c(Nc3ccccc3S(=O)(=O)C(C)C)n2)c(OC(C)C)cc1C1CCNCC1 [ceritinib] | 2.49
69 | CS(=O)(=O)c1ccc(C(=O)Nc2ccc(Cl)c(-c3ccccn3)c2)c(Cl)c1 [vismodegib] | 2.06
